Experimental data from PubChem BioAssay (NCI).
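Step 1: Grow cells in 96-well plates. Step 2: Expose to compound for 48 hours at 5 concentrations. Step 3: Interpolate endpoints linearly; if unreached, use highest concentration. TGI: concentration producing complete growth inhibition.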

Columns and labels:
Assay in all cases: growth of human tumour cells (NCI), 48 h
SNB-19 CNS = system: SNB-19 CNS
TK-10 renal = system: TK-10 renal
OVCAR-4 ovarian = system: OVCAR-4 ovarian
IGROV1 ovarian = system: IGROV1 ovarian
NCI-H23 lung = system: NCI-H23 lung
SK-OV-3 ovarian = system: SK-OV-3 ovarian
K-562 leukemia = system: K-562 leukemia
M14 melanoma = system: M14 melanoma
SF-268 CNS = system: SF-268 CNS
MDA-N = system: MDA-N
SK-MEL-5 melanoma = system: SK-MEL-5 melanoma
KM12 colon = system: KM12 colon
DU-145 prostate = system: DU-145 prostate
OVCAR-3 ovarian = system: OVCAR-3 ovarian
LOX IMVI melanoma = system: LOX IMVI melanoma
OVCAR-8 ovarian = system: OVCAR-8 ovarian
SF-539 CNS = system: SF-539 CNS
SK-MEL-28 melanoma = system: SK-MEL-28 melanoma
NCI/ADR-RES ovarian = system: NCI/ADR-RES ovarian
SF-295 CNS = system: SF-295 CNS
MALME-3M melanoma = system: MALME-3M melanoma
UACC-62 melanoma = system: UACC-62 melanoma
UO-31 renal = system: UO-31 renal
786-0 renal = system: 786-0 renal
T-47D breast = system: T-47D breast
RXF 393 renal = system: RXF 393 renal
SN12C renal = system: SN12C renal
NCI-H226 lung = system: NCI-H226 lung
HT29 colon = system: HT29 colon
SNB-75 CNS = system: SNB-75 CNS
HCT-116 colon = system: HCT-116 colon
BT-549 breast = system: BT-549 breast
RPMI-8226 leukemia = system: RPMI-8226 leukemia
EKVX NSCLC = system: EKVX NSCLC
SW-620 colon = system: SW-620 colon
HCT-15 colon = system: HCT-15 colon
PC-3 prostate = system: PC-3 prostate
NCI-H522 lung = system: NCI-H522 lung
ACHN renal = system: ACHN renal
NCI-H460 lung = system: NCI-H460 lung
U251 CNS = system: U251 CNS
MCF7 breast = system: MCF7 breast
HCC-2998 colon = system: HCC-2998 colon
MDA-MB-435 = system: MDA-MB-435
MDA-MB-231 breast = system: MDA-MB-231 breast
HL-60(TB) leukemia = system: HL-60(TB) leukemia
CCRF-CEM leukemia = system: CCRF-CEM leukemia
HS 578T breast = system: HS 578T breast
CAKI-1 renal = system: CAKI-1 renal
A549 NSCLC = system: A549 NSCLC
HOP-92 NSCLC = system: HOP-92 NSCLC
OVCAR-5 ovarian = system: OVCAR-5 ovarian
UACC-257 melanoma = system: UACC-257 melanoma
SR leukemia = system: SR leukemia
HOP-62 NSCLC = system: HOP-62 NSCLC
MOLT-4 leukemia = system: MOLT-4 leukemia
COLO 205 colon = system: COLO 205 colon
SK-MEL-2 melanoma = system: SK-MEL-2 melanoma
A498 renal = system: A498 renal

c1ccc2c(c1)cc1n2CCc2c-1[nH]c1ccccc21 gave a TGI (SNB-19 CNS) of over 10 µM, a TGI (TK-10 renal) of over 10 µM and a TGI (OVCAR-4 ovarian) of over 10 µM. The TGI (IGROV1 ovarian) was over 10 µM, the TGI (NCI-H23 lung) was over 10 µM and the TGI (SK-OV-3 ovarian) was over 10 µM. It also gave a TGI (K-562 leukemia) of over 10 µM, a TGI (M14 melanoma) of over 10 µM and a TGI (SF-268 CNS) of over 10 µM. It also gave a TGI (MDA-N) of over 10 µM, a TGI (SK-MEL-5 melanoma) of over 10 µM and a TGI (KM12 colon) of over 10 µM. For the same compound, the TGI (DU-145 prostate) was over 10 µM, the TGI (OVCAR-3 ovarian) was over 10 µM and the TGI (LOX IMVI melanoma) was over 10 µM. It also gave a TGI (OVCAR-8 ovarian) of over 10 µM, a TGI (SF-539 CNS) of over 10 µM and a TGI (SK-MEL-28 melanoma) of over 10 µM. For the same compound, the TGI (NCI/ADR-RES ovarian) was over 10 µM, the TGI (SF-295 CNS) was over 10 µM and the TGI (MALME-3M melanoma) was over 10 µM. The TGI (UACC-62 melanoma) was over 10 µM, the TGI (UO-31 renal) was over 10 µM and the TGI (786-0 renal) was over 10 µM. It also gave a TGI (T-47D breast) of over 10 µM, a TGI (RXF 393 renal) of over 10 µM and a TGI (SN12C renal) of over 10 µM. The TGI (NCI-H226 lung) was over 10 µM, the TGI (HT29 colon) was over 10 µM and the TGI (SNB-75 CNS) was over 10 µM. The TGI (HCT-116 colon) was over 10 µM, the TGI (BT-549 breast) was over 10 µM and the TGI (RPMI-8226 leukemia) was over 10 µM. It also gave a TGI (EKVX NSCLC) of over 10 µM, a TGI (SW-620 colon) of over 10 µM and a TGI (HCT-15 colon) of over 10 µM. For the same compound, the TGI (PC-3 prostate) was over 10 µM, the TGI (NCI-H522 lung) was over 10 µM and the TGI (ACHN renal) was over 10 µM. The TGI (NCI-H460 lung) was over 10 µM, the TGI (U251 CNS) was over 10 µM and the TGI (MCF7 breast) was over 10 µM. For the same compound, the TGI (HCC-2998 colon) was over 10 µM, the TGI (MDA-MB-435) was over 10 µM and the TGI (MDA-MB-231 breast) was over 10 µM. It also gave a TGI (HL-60(TB) leukemia) of over 10 µM, a TGI (CCRF-CEM leukemia) of over 10 µM and a TGI (HS 578T breast) of over 10 µM. For the same compound, the TGI (CAKI-1 renal) was over 10 µM, the TGI (A549 NSCLC) was over 10 µM and the TGI (HOP-92 NSCLC) was over 10 µM. For the same compound, the TGI (OVCAR-5 ovarian) was over 10 µM, the TGI (UACC-257 melanoma) was over 10 µM and the TGI (SR leukemia) was over 10 µM. It also gave a TGI (HOP-62 NSCLC) of over 10 µM, a TGI (MOLT-4 leukemia) of over 10 µM and a TGI (COLO 205 colon) of over 10 µM. It also gave a TGI (SK-MEL-2 melanoma) of over 10 µM.

Work on O=C(CC1C=Cc2ccccc2N1C(=O)c1ccccc1)c1ccccc1 (stereo unspecified) yielded a TGI (SNB-19 CNS) of over 100 µM, a TGI (TK-10 renal) of over 100 µM and a TGI (OVCAR-4 ovarian) of over 100 µM. For the same compound, the TGI (IGROV1 ovarian) was over 100 µM, the TGI (NCI-H23 lung) was over 100 µM and the TGI (SK-OV-3 ovarian) was over 100 µM. For the same compound, the TGI (K-562 leukemia) was over 100 µM, the TGI (M14 melanoma) was 65.6 µM and the TGI (SF-268 CNS) was over 100 µM. For the same compound, the TGI (MDA-N) was 39 µM, the TGI (SK-MEL-5 melanoma) was 30.2 µM and the TGI (KM12 colon) was 61.8 µM. It also gave a TGI (DU-145 prostate) of over 100 µM, a TGI (OVCAR-3 ovarian) of 34.7 µM and a TGI (LOX IMVI melanoma) of 67.8 µM. For the same compound, the TGI (OVCAR-8 ovarian) was over 100 µM, the TGI (SF-539 CNS) was 66.7 µM and the TGI (SK-MEL-28 melanoma) was over 100 µM. The TGI (NCI/ADR-RES ovarian) was over 100 µM, the TGI (SF-295 CNS) was 78.1 µM and the TGI (MALME-3M melanoma) was 61 µM. For the same compound, the TGI (UACC-62 melanoma) was 28.5 µM, the TGI (UO-31 renal) was over 100 µM and the TGI (786-0 renal) was over 100 µM. The TGI (T-47D breast) was over 100 µM, the TGI (RXF 393 renal) was over 100 µM and the TGI (SN12C renal) was 45.9 µM. For the same compound, the TGI (NCI-H226 lung) was 99.9 µM, the TGI (HT29 colon) was 40.2 µM and the TGI (SNB-75 CNS) was over 100 µM. The TGI (HCT-116 colon) was 45.6 µM, the TGI (BT-549 breast) was 69.7 µM and the TGI (RPMI-8226 leukemia) was 39.9 µM. It also gave a TGI (EKVX NSCLC) of 47.4 µM, a TGI (SW-620 colon) of over 100 µM and a TGI (HCT-15 colon) of over 100 µM. For the same compound, the TGI (PC-3 prostate) was 96.6 µM, the TGI (NCI-H522 lung) was 53.2 µM and the TGI (ACHN renal) was over 100 µM. The TGI (NCI-H460 lung) was over 100 µM, the TGI (U251 CNS) was 65.1 µM and the TGI (MCF7 breast) was over 100 µM. It also gave a TGI (A498 renal) of 93.5 µM, a TGI (MDA-MB-435) of 47.8 µM and a TGI (MDA-MB-231 breast) of 94 µM. For the same compound, the TGI (HL-60(TB) leukemia) was 43.4 µM, the TGI (CCRF-CEM leukemia) was over 100 µM and the TGI (HS 578T breast) was 67.4 µM. It also gave a TGI (CAKI-1 renal) of over 100 µM, a TGI (A549 NSCLC) of over 100 µM and a TGI (HOP-92 NSCLC) of 86 µM. For the same compound, the TGI (OVCAR-5 ovarian) was over 100 µM, the TGI (UACC-257 melanoma) was 61.3 µM and the TGI (SR leukemia) was 35.4 µM. The TGI (HOP-62 NSCLC) was over 100 µM, the TGI (MOLT-4 leukemia) was 34.6 µM and the TGI (COLO 205 colon) was 42.5 µM. For the same compound, the TGI (SK-MEL-2 melanoma) was 38.8 µM.
